According to US11415579B2, “Assay for measuring a rate of reaction between a target and a ligand candidate” (Imperial College Innovations Ltd., priority 2016, dated 2022):
Several values for one entry are separate records, joined by “and”; a condition that tells them apart may be missing. Equal entries are not always repeated.

Columns and labels:
[1] = target: T1, Cdk2(N272C) (C177A) (Homo sapiens, UniProt P24941, C177A/N272C); assay: Kinetic thiol consumption assay with Cdk2 mutant N272C; format: binding; set-up: key to Rate enhancement, Cdk2 N272: rate constant with Cdk2 ÷ rate constant with model thiol (fold); conditions: for Rate enhancement, Cdk2 N272: Cdk2 N272, additional mutation C177A; for Rate constant with Cdk2 N272C: Protein: Cdk2, cysteine position N272C, additional mutation C177A, in h^-1
T1 construct: poly-histidine; made in house; host or cells: E. coli
Summary of the method: (§1)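 Thiol consumption was monitored kinetically using 5 μM Cdk2 (C177A plus one introduced cysteine) in degassed phosphate buffer at pH 8 with TCEP beads. Plates were kept 1 h at room temperature before fluorescence reading, and rate constants came from exponential decay fitting.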

[2] = target: T2, human cyclin-dependent kinase 2 (Cdk2) (Homo sapiens, UniProt P24941); assay: Kinetic thiol consumption assay with wild type Cdk2 (C177); format: binding; set-up: key to Rate enhancement, Cdk2 WT: k(Cdk2) divided by k(model thiol); Rate constant with Cdk2 (k(Cdk2)): unit not given here; conditions: for Rate constant with Cdk2 (k(Cdk2)): 500 μM ligand, 5 μM thiol, phosphate buffer pH 8; for Rate enhancement, Cdk2 WT: no additional mutations; for Rate constant with Cdk2 WT: Protein: Cdk2, cysteine position WT, in h^-1; for k(Cdk2)/k(Cdk2_mut) rate enhancement: model thiol Cdk2[C177A, F80C, K278C]; for k(Cdk2)/k(GSH) rate enhancement: model thiol glutathione
T2 construct: poly-histidine; made in house; host or cells: E. coli
Summary of the method: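 His-tagged human Cdk2 from E. coli (sole surface cysteine C177) or a model thiol, each 5 μM in degassed phosphate buffer pH 8 with immobilized TCEP, reacted with acrylamides at room temperature. Fluorescence (ex 380/em 470) normalized to DMSO/thiol control over time; first-order rate constants, Cdk2 rate divided by model-thiol rate.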

[3] = target: T3, Cdk2(T182C) (C177A) (Homo sapiens, UniProt P24941, C177A/T182C); assay: Kinetic thiol consumption assay with Cdk2 mutant T182C; format: binding; set-up: key to Rate enhancement, Cdk2 T182C: rate constant with Cdk2 ÷ rate constant with model thiol (fold); conditions: additional mutation C177A; for Rate constant with Cdk2 T182C: Protein: Cdk2, cysteine position T182C, in h^-1
T3 construct: poly-histidine; made in house; host or cells: E. coli
Summary of the method: as §1

[4] = target: T4, Cdk2[C177A, F80C, K278C] (Homo sapiens, UniProt P24941, C177A/F80C/K278C); assay: Kinetic thiol consumption assay with mutant Cdk2 as model thiol; format: binding; set-up: unit not given here; conditions: 500 μM ligand, 5 μM thiol, phosphate buffer pH 8
T4 construct: poly-histidine; made in house; host or cells: E. coli
Summary of the method: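 First-order rate constants were derived by exponential-decay fitting of DMSO/thiol-normalized fluorescence (380/470 nm) over time at room temperature. Thiol was 5 μM E. coli-expressed His-tagged Cdk2 mutant C177A/F80C/K278C in degassed pH 8 phosphate buffer containing 2% v/v TCEP beads.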

[5] = target: T5, Cdk2(C177A, F80C) (Homo sapiens, UniProt P24941, C177A/F80C); assay: Kinetic thiol consumption assay with Cdk2 mutant F80C, incl. kobs versus concentration (Kd, k2); format: binding; set-up: key to Rate enhancement, Cdk2 F80C: Cdk2 rate constant divided by model-thiol rate constant; conditions: additional mutation C177A; for Rate constant with Cdk2 F80C: Protein: Cdk2, cysteine position F80C, in h^-1
T5 construct: poly-histidine; made in house; host or cells: E. coli
Summary of the method: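 His-tagged Cdk2(C177A/F80C) from E. coli or model thiol, 5 μM in degassed phosphate buffer pH 8 with TCEP beads, reacted with acrylamide ligands; fluorescence (ex/em 380/470 nm) normalized to DMSO control and fitted to first-order decay for kobs. Kd and k2 obtained from hyperbolic fit of kobs versus ligand concentration.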

[6] = target: T6, Cdk2(H71C) (C177A) (Homo sapiens, UniProt P24941, C177A/H71C); assay: Kinetic thiol consumption assay with Cdk2 mutant H71C; format: binding; set-up: key to Rate enhancement, Cdk2 H71C: rate constant with Cdk2 ÷ rate constant with model thiol (fold); conditions: additional mutation C177A; for Rate constant with Cdk2 H71C: Protein: Cdk2, cysteine position H71C, in h^-1
T6 construct: poly-histidine; made in house; host or cells: E. coli
Summary of the method: as §1

[7] = Kinetic thiol consumption assay with model thiol glutathione; format: physicochemical; set-up: Rate constant with glutathione (k(GSH)): unit not given here; conditions: for Rate constant with glutathione (k(GSH)): 500 μM ligand, 5 μM thiol, phosphate buffer pH 8; for Rate constant with Glutathione: Protein: Glutathione, cysteine position NA, in h-1
Summary of the method: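 First, 5 μM glutathione in degassed phosphate buffer (pH 8) receives immobilized TCEP beads (2% v/v). Then acrylamide is added and plates incubate 1 h at room temperature. Finally, fluorescence (380/470 nm) is normalized and fitted to first-order decay for rate constants.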

[8] = target: T7, Cdk2(R122C) (C177A) (Homo sapiens, UniProt P24941, C177A/R122C); assay: Kinetic thiol consumption assay with Cdk2 mutant R122C; format: binding; set-up: key to Rate enhancement, Cdk2 R122C: rate constant with Cdk2 ÷ rate constant with model thiol (fold); conditions: additional mutation C177A; for Rate constant with Cdk2 R122C: Protein: Cdk2, cysteine position R122C, in h-1
T7 construct: poly-histidine; made in house; host or cells: E. coli
Summary of the method: as §1

[9] = target: T8, Cdk2(S181C) (C177A) (Homo sapiens, UniProt P24941, C177A/S181C); assay: Kinetic thiol consumption assay with Cdk2 mutant S181C; format: binding; set-up: key to Rate enhancement, Cdk2 S181C: rate constant with Cdk2 ÷ rate constant with model thiol (fold); conditions: additional mutation C177A; for Rate constant with Cdk2 S181C: Protein: Cdk2, cysteine position S181C, in h^-1
T8 construct: poly-histidine; made in house; host or cells: E. coli
Summary of the method: as §1

[10] = target: T9, Cdk2(S276C) (C177A) (Homo sapiens, UniProt P24941, C177A/S276C); assay: Kinetic thiol consumption assay with Cdk2 mutant S276C; format: binding; set-up: key to Rate enhancement, Cdk2 S276C: rate constant with Cdk2 ÷ rate constant with model thiol (fold); conditions: additional mutation C177A; for Rate constant with Cdk2 S276C: Protein: Cdk2, cysteine position S276C, in h^-1
T9 construct: poly-histidine; made in house; host or cells: E. coli
Summary of the method: as §1

Rate enhancement, Cdk2 N272 [1]	Rate constant with Cdk2 N272C [1]	Rate constant with Cdk2 (k(Cdk2)) [2]	Rate enhancement, Cdk2 WT [2]	Rate constant with Cdk2 WT [2]	k(Cdk2)/k(Cdk2_mut) rate enhancement [2]	k(Cdk2)/k(GSH) rate enhancement [2]	Rate enhancement, Cdk2 T182C [3]	Rate constant with Cdk2 T182C [3]	Rate constant with Cdk2[C177A, F80C, K278C] (k(Cdk2_mut)) [4]	Rate enhancement, Cdk2 F80C [5]	Rate constant with Cdk2 F80C [5]	Rate enhancement, Cdk2 H71C [6]	Rate constant with Cdk2 H71C [6]	Rate enhancement, Cdk2 R122C [8]	Rate constant with Cdk2 R122C [8]	Rate enhancement, Cdk2 S181C [9]	Rate enhancement, Cdk2 S276C [10]	SMILES	Rate constant with glutathione (k(GSH)) [7]	Rate constant with Glutathione [7]	other results
0.3406	0.008386	0.035 and 0.03473	1.411	0.03473	0.5928	1.4 and 1.411	2.5	0.06154	0.05859	1.215	0.02991	0.2924	0.007199	0.6852	0.01687	0.487	1.314	C=CC(=O)Nc1cccc(C(F)(F)F)c1 [EL-1007]	0.025 and 0.02461	0.02462	hit classification, Example 1 ([2]; hits defined as kCdk2/kGSH>5.8 (3 standard deviations over the mean)): negative compound; Rate constant with Cdk2 S181C [9]: 0.01199; Rate constant with Cdk2 S276C [10]: 0.03236
0.3173	0.06304	0.55	2.768	0.55	0.4737	2.89	1.883	0.3741	1.161	2.57	0.5106	1.537	0.3055	0.08933	0.01775	0.2482	0.03818	C=CC(=O)N1CC2(CCC2)c2c(F)cccc21 [CA-188]	0.1903	0.1987	Rate constant with Cdk2 S181C [9]: 0.04931; Rate constant with Cdk2 S276C [10]: 0.007587
0		0.3945	1.092	5.676	0.3473	0.8877	0		1.136	0.661	3.436	0		0		0	0	C=CC(=O)N1C(=O)CC(c2ccccc2)N(C(=O)C=C)c2ccccc21 (centres unmarked) [CA-165-1]	0.4444	5.198	
0.3397	0.005976	0.01873	1.065	0.01873	0.8683	1.062	4.097	0.07206	0.02157	1.015	0.01786	0.3885	0.006834	0.6879	0.0121	1	1.35	C=CC(=O)N1CCN(c2cccc3cccnc23)CC1 [EL-1156]	0.01763	0.01759	Rate constant with Cdk2 S181C [9]: 0.01759; Rate constant with Cdk2 S276C [10]: 0.02375
